{
  "source": "paper PMC10349806",
  "about": "(Nature Communications, 2023)",
  "key": {"PfCRT variant E207K/K80E": {"system": "PfCRT variant E207K/K80E", "experiment": "CQ uptake assay, oocytes expressing E207K/K80E", "type": "cell-based, Plasmodium falciparum", "method": "(§1) Site-directed mutagenesis of PfCRT^Dd2 was performed as described using the megaprimer method with overlap extension[21],[54]. The primer pairs used are listed in Supplementary Table 6. Please note that a codon-optimized and oocyte-adapted version of PfCRT^Dd2 was used[22] (Supplementary Fig. 16). The resulting DNA fragment was cloned into the SP64T expression vector and verified by sequencing.\n(§2) Oocytes were obtained as described previously. Briefly, adult (>2 years old) female X. laevis frogs (NASCO) were anesthetized in a cooled solution of ethyl 3-amino benzoate methanesulfonate (0.1%, w/v), followed by a surgical removal of parts of the ovary. The ovary lobes were carefully dissected and small pieces of oocytes were incubated in Ca^2+-free ND96 buffer (96 mM NaCl, 2 mM KCl, 1 mM MgCl2 buffered with 5 mM HEPES/NaOH, pH 7.5) supplemented with collagenase D (0.1%, w/v; Roche), BSA (0.5%, w/v), and 9 mm Na2HPO4 at 18 °C for 14-16 h while gentle shaking. After incubation, the oocytes were carefully washed several times with ND96 buffer (96 mM NaCl, 2 mM KCl, 1.8 mM CaCl2, 1 mM MgCl2 buffered with 5 mM HEPES/NaOH, pH 7.5) supplemented with 100 mg l^−1 gentamycin). Defolliculated and healthy-looking stage V-VI oocytes were manually selected for RNA microinjection. The RNA was generated as following: The codon-optimized sequences of PfCRT variants were cloned into the pSP64T expression vector. After vector linearization using the restriction endonucleases BamHI or SalI (New England Biolabs), transcription was performed using the in vitro SP6 mMessage mMachine Kit (Ambion)[34]. The obtained RNA was kept at −80 °C and diluted with nuclease-free water to a concentration of 0.6 μg μl^−1. Precision-bore glass capillary tubes (3.5-inch glass capillaries; Drummond Scientific Co.) were pulled on a vertical puller (P-87 Flaming/Brown micropipette puller, Sutter Instrument Co.), graduated, and placed on a microinjector (Nanoject II Auto-Nanoliter Injector, Drummond Scientific Co.). 50 nl of nuclease-free water alone (control oocytes) or 50 nl of 0.6 μg μl^−1 RNA were injected under stereomicroscopic control. Injected oocytes were incubated for 46–72 h at 18 °C with twice-daily buffer changes before usage in experiments.\nDrug uptake assays were performed as described previously[21],[22],[24],[34]. […] The radioactivity of each sample was measured using a liquid scintillation analyzer Tri-Carb 4910 TR (PerkinElmer). Oocytes that were injected with water instead of RNA were analyzed in parallel, representing the uptake of a drug by diffusion and/or endogenous permeation pathways. […]"}, "PfCRT variant F322A": {"biological_target": "T1, PfCRT variant F322A (Plasmodium falciparum, UniProt Q9N623, A220S/F322A/I356T/K76T/M74I/N326S/N75E/Q271E/R371I)", "T1 sequence (Q9N623 1-424 M74I/N75E/K76T/A220S/Q271E/F322A/N326S/I356T/R371I)": "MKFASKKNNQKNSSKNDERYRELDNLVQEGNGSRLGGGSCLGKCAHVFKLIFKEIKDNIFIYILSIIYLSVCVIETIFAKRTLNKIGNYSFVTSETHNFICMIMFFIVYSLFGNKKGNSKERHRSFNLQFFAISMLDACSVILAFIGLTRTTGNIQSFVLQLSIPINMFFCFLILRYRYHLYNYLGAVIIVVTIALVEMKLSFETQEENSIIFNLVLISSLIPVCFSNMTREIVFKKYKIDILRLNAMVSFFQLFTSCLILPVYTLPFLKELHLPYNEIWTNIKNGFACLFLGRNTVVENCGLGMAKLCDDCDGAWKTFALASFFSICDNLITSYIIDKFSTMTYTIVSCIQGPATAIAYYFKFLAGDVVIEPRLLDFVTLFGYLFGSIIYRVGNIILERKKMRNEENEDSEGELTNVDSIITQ", "experiment": "CQ uptake assay, oocytes expressing F322A", "type": "cell-based", "method": "as §1, §2\nDrug uptake assays were performed as described previously[21],[22],[24],[34]. […] The direction of radio-labeled drug transport is here from the mostly acidic extracellular solution (pH 4.5 or 6.0, as indicated) into the oocyte cytosol (pH ∼ 7.2), which corresponds to the efflux of drug from the acidic digestive vacuole (pH 5.2) into the parasite cytoplasm (pH 7.2). The topology of PfCRT in the oolemma is such that both the N- and C-terminus face the extracellular milieu[3],[22]. In the parasite, the N- and C-terminus face the lumen of the digestive vacuole. CQ uptake kinetics were performed by incubating oocytes in ND96 buffer adjusted to a pH of 4.5, 5.0, 5.5, or 6.0 and supplemented with 50 nM [^3H]CQ and one of 7 different CQ concentrations (10 µM, 50 µM, 100 µM, 200 µM, 300 µM, 400 µM, 500 µM CQ). The reaction was stopped at the 60 min time point, which is in the linear uptake range[22],[34] (Supplementary Fig. 17). For determination of the amount of drug uptake for each oocyte, the reaction medium was removed and the oocytes were washed three times with 2 ml of ice-cold ND96 buffer. Each oocyte was individually transferred to a scintillation vial containing 5% sodium dodecyl sulfate (200 μl) for lysis. The radioactivity of each sample was measured using a liquid scintillation analyzer Tri-Carb 4910 TR (PerkinElmer). Oocytes that were injected with water instead of RNA were analyzed in parallel, representing the uptake of a drug by diffusion and/or endogenous permeation pathways. The resulting value represents the “background“ level of drug accumulation in oocytes (in-depth discussion in[22]). […]"}, "PfCRT variant F291A": {"biological_target": "T2, PfCRT variant F291A (Plasmodium falciparum, UniProt Q9N623, A220S/F291A/I356T/K76T/M74I/N326S/N75E/Q271E/R371I)", "T2 sequence (Q9N623 1-424 M74I/N75E/K76T/A220S/Q271E/F291A/N326S/I356T/R371I)": "T1 sequence (Q9N623 1-424 M74I/N75E/K76T/A220S/Q271E/F322A/N326S/I356T/R371I) with F291A, A322F", "experiment": "CQ uptake assay, oocytes expressing F291A", "type": "cell-based", "method": "as §1, §2\nDrug uptake assays were performed as described previously[21],[22],[24],[34]. […] The direction of radio-labeled drug transport is here from the mostly acidic extracellular solution (pH 4.5 or 6.0, as indicated) into the oocyte cytosol (pH ∼ 7.2), which corresponds to the efflux of drug from the acidic digestive vacuole (pH 5.2) into the parasite cytoplasm (pH 7.2). The topology of PfCRT in the oolemma is such that both the N- and C-terminus face the extracellular milieu[3],[22]. In the parasite, the N- and C-terminus face the lumen of the digestive vacuole. CQ uptake kinetics were performed by incubating oocytes in ND96 buffer adjusted to a pH of 4.5, 5.0, 5.5, or 6.0 and supplemented with 50 nM [^3H]CQ and one of 7 different CQ concentrations (10 µM, 50 µM, 100 µM, 200 µM, 300 µM, 400 µM, 500 µM CQ). The reaction was stopped at the 60 min time point, which is in the linear uptake range[22],[34] (Supplementary Fig. 17). […] The radioactivity of each sample was measured using a liquid scintillation analyzer Tri-Carb 4910 TR (PerkinElmer). Oocytes that were injected with water instead of RNA were analyzed in parallel, representing the uptake of a drug by diffusion and/or endogenous permeation pathways. […]"}, "[1]": {"details": "E207K/K80E, 50 µM CQ, 1 h, mean ± SEM"}, "[2]": {"details": "F322A, 50 µM CQ, 1 h, mean ± SEM"}, "[3]": {"details": "pH 4.5, single replicates, Fig 1d left"}, "[4]": {"details": "pH 6.0, single replicates, Fig 1d left"}, "[5]": {"details": "F291A, 50 µM CQ, 1 h, mean ± SEM"}},
  "note": "Where a chain is given by its changes, count along the chain named. “And” between values parts separate entries of the source, which are not always exact repeats. Identical values can stand only once.",
  "data": [
    {"smiles": "CCN(CC)CCCC(C)Nc1ccnc2cc(Cl)ccc12", "note": "(stereo not drawn) [CQ, chloroquine]", "values": [
      {"measurement": "Activity at pH 4.5", "setting": "PfCRT variant E207K/K80E; [1]", "value": "1.85 ± 0.84", "unit": "pmol h-1 oocyte-1"},
      {"measurement": "Activity at pH 6.0", "setting": "PfCRT variant E207K/K80E; [1]", "value": "4.75 ± 0.91", "unit": "pmol h-1 oocyte-1"},
      {"measurement": "E207K/K80E transport activity pH 4.5", "setting": "PfCRT variant E207K/K80E; pH 4.5, individual replicates (Fig 6a)", "value": "3.47 pmol oocyte-1 h-1 and 1.46 pmol oocyte-1 h-1 and 0.63 pmol oocyte-1 h-1"},
      {"measurement": "E207K/K80E transport activity pH 6.0", "setting": "PfCRT variant E207K/K80E; pH 6.0, individual replicates (Fig 6a)", "value": "6.4 pmol oocyte-1 h-1 and 4.59 pmol oocyte-1 h-1 and 3.25 pmol oocyte-1 h-1"},
      {"measurement": "Activity at pH 4.5", "setting": "PfCRT variant F322A; [2]", "value": "0.72 ± 0.12", "unit": "pmol h-1 oocyte-1"},
      {"measurement": "Activity at pH 6.0", "setting": "PfCRT variant F322A; [2]", "value": "1.05 ± 0.12", "unit": "pmol h-1 oocyte-1"},
      {"measurement": "R-value", "setting": "PfCRT variant F322A; F322A, CQ transport at pH 4.5 / pH 6.0", "value": "0.68 ± 0.04"},
      {"measurement": "F322A transport activity pH 4.5", "setting": "PfCRT variant F322A; [3]", "value": "0.55 pmol oocyte-1 h-1 and 1.12 pmol oocyte-1 h-1 and 0.61 pmol oocyte-1 h-1 and 0.60 pmol oocyte-1 h-1"},
      {"measurement": "F322A R-value", "setting": "PfCRT variant F322A; pH 4.5 vs pH 6.0, Fig 1d left", "value": "0.73 and 0.78 and 0.63 and 0.59"},
      {"measurement": "F322A transport activity pH 6.0", "setting": "PfCRT variant F322A; [4]", "value": "0.75 pmol oocyte-1 h-1 and 1.44 pmol oocyte-1 h-1 and 0.97 pmol oocyte-1 h-1 and 1.02 pmol oocyte-1 h-1"},
      {"measurement": "Activity at pH 4.5", "setting": "PfCRT variant F291A; [5]", "value": "1.61 ± 0.31", "unit": "pmol h-1 oocyte-1"},
      {"measurement": "Activity at pH 6.0", "setting": "PfCRT variant F291A; [5]", "value": "3.23 ± 0.24", "unit": "pmol h-1 oocyte-1"},
      {"measurement": "R-value", "setting": "PfCRT variant F291A; F291A, CQ transport at pH 4.5 / pH 6.0", "value": "0.52 ± 0.11"},
      {"measurement": "F291A transport activity pH 4.5", "setting": "PfCRT variant F291A; [3]", "value": "1.94 pmol oocyte-1 h-1 and 2.47 pmol oocyte-1 h-1 and 0.96 pmol oocyte-1 h-1 and 1.07 pmol oocyte-1 h-1"},
      {"measurement": "F291A transport activity pH 6.0", "setting": "PfCRT variant F291A; [4]", "value": "2.78 pmol oocyte-1 h-1 and 3.29 pmol oocyte-1 h-1 and 4.00 pmol oocyte-1 h-1 and 2.84 pmol oocyte-1 h-1"}
    ]}
  ]
}
